# Patent US20250312469A1 (CANGET BIOTEKPHARMA, priority 2024, published 2025)
# Several values for one entry are separate records, joined by “and”; a condition that tells them apart may be missing. Identical values can stand only once.
# How the values were obtained:
# [1] = test system: Agrin mRNA; experiment: Real-time RT-PCR of Agrin mRNA in Panc-1 and MiaPaca2 cells; assay type: cell-based, human
# Method: Real time quantitative (q) RT-PCR: Real time RT-PCR methods were described previously (9, 56). Pertinent to this study, total RNAs were extracted from cancer cells using TRI REAGENT RT (Molecular Research Center), and 5 μg per sample was converted to cDNA with anchored oligo (dT) primers using RevertAid First Strand cDNA Synthesis Kit (Thermo Fisher Scientific, Catalog No. K1622) following the manufacturer's instructions. Individual reverse transcription (RT) reactions of 20 μL were then diluted to 200 μL with sterile H2O. Five microliters of diluted RT reaction were used for real-time qPCR using Maxima SYBR Green/ROX qPCR Master Mix (2×, Thermo Fisher Scientific, Catalog No. K0223). The primers used in qPCR were as follows: 5′-GGC GCA CAG CAC AAG AGG-3′ (DDX5 qPCR-F, forward) and 5′-ATGGCAGGAAGCAAATAAGACAA-3′ (DDX5 qPCR-R, reverse); 5′-CTTCTGCTTCAAGGAGCTGGAAG-3′ (hsv5p2, survivin, forward) and 5′-GCACTTTCTTCGCAGTTTCCTC-3′ (hvs3p2, survivin, reverse); 5′-CCACAGCAAACCTCCTCACAG-3′ (myc5, c-Myc, forward) and 5′-GCAGGATAGTCCTTCCGAGTG-3′ (myc3, c-Myc, reverse); 5′-GTCTCCTCTGACTTCAACAGCG-3′ (hGAPDH-5, forward) and 5′-ACCACCCTGTTGCTGTAGCCAA-3′ (hGAPDH-3, reverse). GAPDH was used as an internal control. […] The data were analyzed using the Applied Biosystems 7300 Real Time PCR System and normalized to GAPDH.
# [2] = target: DDX5 (Homo sapiens, UniProt P17844); experiment: Immunoprecipitation/Western blot of DDX5 in Mia Paca-2 and SW620 cells; assay type: cell-based; parameters: endogenous in cells; Mia Paca-2 and SW620 (IP/Western)
# Method: Up to 10^7 cells for each time point/test were harvested with a scraper in cold PBS buffers and collected by centrifugation at 1000g×5 min and washed with cold PBS once. Cell pellets were lysed in 1 mL cold RIPA lysis buffer containing proteinase inhibitors (refer to Western blots). The cell lysates were precleared with centrifuging 14,000 rpm for 15 min. The resulting supernatants were transferred to a new 1.5 ml tube and incubated with up to 3 μg either DDX5 antibodies or normal IgG antibodies for 1 h at 4° C., followed by incubation with 20-40 μL 50% protein A/G-Agarose slurry overnight at 4° C. on a rocker platform. […]
# For frozen prostate cancer tissue specimens and their adjacent non-tumor tissues (if any) obtained from Roswell Park pathology network, 30-50 mg of each tissue in a 1.5 Eppendorf tube containing 500 μL of 2×SDS lysis buffer containing Tris pH 6.8+4% SDS+10% Glycerol were homogenized through ultrasound treatment for 10-15 second per time with 3-6 times until tumor tissue was lysed. […] Proteins of interest were detected using Western Lightning ECL-Plus (Perkin Elmer, Waltham, MA) and visualized by various times (3-120 seconds) of exposure. Actin, tubulin and/or GAPDH were detected as the internal control to normalize total protein loading for each sample.
# [3] = Liver microsome stability; settings: for microsomal CLint at 0.5 μM / half-life at 0.5 μM: both; for microsomal CLint at 0.5 μM: CLint (intrinsic clearance); for microsomal CLint at 0.5 μM / half-life at 0.5 μM / % Remaining of Initial (n = 1): human liver microsome
# [4] = test system: TA1535; experiment: Ames Bacterial Reverse Mutation Assay
# Method: The Ames Bacterial Reverse Mutation (AB™) used five bacterial tester strains (TA97a, TA98, TA100, TA1535, WP2-uvrA).
# Tester strains were added to flasks containing nutrient broth and incubated at 37+2° C. overnight. The flasks were removed from the overnight incubation and the final concentration was determined (the OD was measured and determined whether growth was suitable for testing). Top agar was melted, and 2.0 mL was dispensed into heated culture tubes. The S9 mix (metabolic activation) was prepared and stored on ice. […] Each culture tube was vortexed and immediately poured onto the labeled minimal glucose agar plates. All plates were inverted and placed into a 37±1° C. incubator for 48-72 hours. The plates were counted via an automated colony counter or by hand and the background lawn was microscopically evaluated for any signs of toxicity. Genotypic control plates were prepared for each tester strain and incubated for 24-72 hours at 37±1° C.
# [5] = TA1535 partial repeat, 0.010 μM −S9
# [6] = TA1535 partial repeat, 0.10 μM −S9
# [7] = TA1535 partial repeat, 1.0 μM −S9
# Sequence of DDX5 (P17844 whole entry): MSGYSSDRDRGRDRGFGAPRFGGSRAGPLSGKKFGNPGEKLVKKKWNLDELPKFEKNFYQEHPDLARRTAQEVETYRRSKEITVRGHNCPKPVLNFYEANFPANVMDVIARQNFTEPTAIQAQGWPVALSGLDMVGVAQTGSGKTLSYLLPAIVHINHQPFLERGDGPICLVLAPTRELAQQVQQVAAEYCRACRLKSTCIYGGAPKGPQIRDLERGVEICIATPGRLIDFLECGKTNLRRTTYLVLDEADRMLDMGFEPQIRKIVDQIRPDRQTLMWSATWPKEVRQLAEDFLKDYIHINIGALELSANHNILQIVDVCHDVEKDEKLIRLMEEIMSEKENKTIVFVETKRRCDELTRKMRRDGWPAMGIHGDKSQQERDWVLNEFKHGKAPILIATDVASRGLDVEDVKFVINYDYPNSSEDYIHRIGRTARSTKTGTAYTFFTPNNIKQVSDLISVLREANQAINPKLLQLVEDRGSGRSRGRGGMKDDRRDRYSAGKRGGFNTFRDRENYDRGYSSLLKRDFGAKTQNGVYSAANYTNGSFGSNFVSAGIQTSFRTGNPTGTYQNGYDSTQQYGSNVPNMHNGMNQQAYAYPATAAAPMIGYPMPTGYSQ
smiles,measurement,setting,value
CCC1(O)C(=O)OCc2c1cc1n(c2=O)Cc2cc3cc4c(cc3nc2-1)OCO4 (stereo not drawn) [FL118],Agrin mRNA,[1],inhibits Agrin mRNA
same,DDX5 phosphorylation on tyrosine,[2]; 6h,eliminates DDX5 phosphorylation
same,DDX5 protein,[2]; 24h,inhibits DDX5 proteins
same,microsomal CLint at 0.5 μM,"[3]; human, microsomes, calculated (in parentheses)",18.6 µL/min/mg
same,microsomal CLint at 0.5 μM,"[3]; human, microsomes, bound",< 23.1 µL/min/mg
same,half-life at 0.5 μM,"[3]; human, microsomes, calculated (in parentheses), calculated half-life longer than the experiment",1.25 h
same,half-life at 0.5 μM,"[3]; human, microsomes, expressed as > the longest incubation time (60 min)",> 1 h
same,% Remaining of Initial (n = 1),[3]; 0 min,100%
same,% Remaining of Initial (n = 1),[3]; 10 min,93%
same,% Remaining of Initial (n = 1),[3]; 20 min,82%
same,% Remaining of Initial (n = 1),[3]; 30 min,76%
same,% Remaining of Initial (n = 1),[3]; 60 min,58%
same,half-life,"[3]; human, microsomes",long half-life
same,bacterial strain mutation,[4],does not induce
same,Background Lawn Code,"[4]; TA1535, 0.010 μM +S9",1
same,Colony Counts Average,"[4]; TA1535, 0.010 μM +S9",14
same,Colony Counts Replicate 1-3,"[4]; TA1535, 0.010 μM +S9",20 and 9 and 13
same,Background Lawn Code,"[4]; TA1535, 0.010 μM −S9",1
same,Colony Counts Average,"[4]; TA1535, 0.010 μM −S9",39
same,Colony Counts Replicate 1-3,"[4]; TA1535, 0.010 μM −S9",39 and 37 and 41
same,Background Lawn Code,"[4]; TA1535, 0.10 μM +S9",1
same,Colony Counts Average,"[4]; TA1535, 0.10 μM +S9",14
same,Colony Counts Replicate 1-3,"[4]; TA1535, 0.10 μM +S9",13 and 8 and 20
same,Background Lawn Code,"[4]; TA1535, 0.10 μM −S9",1
same,Colony Counts Average,"[4]; TA1535, 0.10 μM −S9",61
same,Colony Counts Replicate 1-3,"[4]; TA1535, 0.10 μM −S9",54 and 62 and 67
same,Background Lawn Code,"[4]; TA1535, 1.0 μM +S9",1
same,Colony Counts Average,"[4]; TA1535, 1.0 μM +S9",12
same,Colony Counts Replicate 1-3,"[4]; TA1535, 1.0 μM +S9",12 and 10 and 15
same,Background Lawn Code,"[4]; TA1535, 1.0 μM −S9",1
same,Colony Counts Average,"[4]; TA1535, 1.0 μM −S9",25
same,Colony Counts Replicate 1-3,"[4]; TA1535, 1.0 μM −S9",23 and 21 and 30
same,Background Lawn Code,[4]; [5],1
same,Colony Counts Average,[4]; [5],12
same,Colony Counts Replicate 1-3,[4]; [5],13 and 12 (2×)
same,Background Lawn Code,[4]; [6],1
same,Colony Counts Average,[4]; [6],14
same,Colony Counts Replicate 1-3,[4]; [6],16 and 15 and 10
same,Background Lawn Code,[4]; [7],1
same,Colony Counts Average,[4]; [7],12
same,Colony Counts Replicate 1-3,[4]; [7],11 and 13 and 12
same,mean revertant colonies over negative control,"[4]; repeat assay, -S9 condition",less than 2 fold
